This passage reports XC50 results from ChEMBL document CHEMBL1157539, “Thousands of chemical starting points for antimalarial lead identification” (Nature, 2010).

This experiment relates to Plasmodium falciparum. Briefly: GSK_TCMDC: Inhibition of Plasmodium falciparum 3D7 in whole erythrocytes, using parasite LDH activity as an index of growth. Type of experiment: functional, organism-based. The following applies: Plasmodium falciparum, 3D7.
In the case of `CCN(CC)CCN(Cc1ccc(-c2ccc(C(F)(F)F)cc2)cc1)C(=O)Cn1c(CCc2c(F)ccc(F)c2F)nc(=O)c2ccccc21`, the XC50 came to 238 nM.

`CCOc1cc(Cc2cnc(N)nc2N)cc(OC)c1OC` registered an XC50 of 913 nM. For `Cc1ccc(NC(=O)C2CCC2)cc1-c1ccc(C(=O)NCC2CC2)cc1`, the XC50 stood at 742 nM. As for `COc1ccccc1C1CCN(C2CCC(NC(=O)/C=C/c3ccc(F)c(F)c3)CC2)CC1` (stereo not given), the XC50 amounted to 1320 nM. To `COc1ccc(C(=O)CCC(=O)N(Cc2ccc(-c3ccc(CNCc4cccnc4)cn3)cc2)C2CCN(Cc3ccccc3)CC2)cc1F` belongs 978 nM. On to `O=C(Nc1ccc2c(c1)CCN2C1CCN(Cc2csc3ccccc23)C1)c1ccco1` (stereo not given), for which the XC50 came out at 322 nM. Then `CC(C)CCN1CCC(Oc2ccc(NC(=O)c3cccs3)cc2Cl)CC1`, with 341 nM. Then `c1ccc2cc(CNCCCN3CCN(CCCNCc4ccc5ccccc5c4)CC3)ccc2c1`, with 545 nM; and `c1cc(CNCC2CCCO2)cc(-c2cccc(-c3nc4ccccc4[nH]3)c2)c1` (stereo not given), with 859 nM; and `O=C(Nc1ccc(Cl)c(Cl)c1)N1CCC(NCc2cccc([N+](=O)[O-])c2)CC1`, with 763 nM. As for `COc1ccc2c(=O)c(I)c(C)[nH]c2c1`, the XC50 was 440 nM. Then `CCCc1ccc(Cc2cnc3nc(N)nc(N)c3c2C)cc1`, with 283 nM; and `O=C(Nc1cccc(-c2cccc(-c3nc4ccccc4[nH]3)c2)c1)c1ccoc1`, with 741 nM; and `NC1CCN(Cc2ccc(-c3ccc(-c4nc5ccccc5[nH]4)cc3)cc2)C1` (stereo not given), with 147 nM. Turning to `CCCC(=O)Nc1ccc(OCCCN(Cc2cccc(C(F)(F)F)c2)c2ccc(C#N)c(C(F)(F)F)c2)cc1`, the XC50 worked out at 1090 nM. To `CCCSc1nc2c(c(=O)n1CCc1ccccc1)C1(CCCC1)Cc1ccccc1-2` belongs 702 nM; to `COc1ccccc1C1CCN(C2CCC(NC(=O)/C=C/c3cccc(Cl)c3F)CC2)CC1` (stereo not given), 1290 nM; to `Cc1[nH]c(C)c(-c2ccc(-c3ccccc3F)nc2)c(=O)c1Cl`, 250 nM. In turn, `Nc1nc(N)c2c(ccc3c2ccn3Cc2cccc3ccccc23)n1` yielded an XC50 of 3.2 nM. On to `O=C(NC1CCC(N2CCC3(CC2)C(=O)NCN3c2ccccc2)CC1)c1cc2ccccc2[nH]1` (stereo not given), for which the XC50 amounted to 679 nM.

Consider `Cc1cc2cc(/C=C/C(=O)NC3CCC(CCN4CCc5ccc(C#N)cc5CC4)CC3)ccc2[nH]1` (stereo not given), for which the XC50 was determined as 880 nM. `CC1CCc2c(C(=O)Nc3c(F)cc(F)cc3Br)csc2C1` (stereo not given) came in with an XC50 of 752 nM.

Turning to `CCc1cc(NCc2ccncc2)nc(Nc2ccc(F)cc2)n1`, the XC50 came out at 1330 nM.

The compound `CCCN1CCC2(CC1)NC(C(=O)NCCC(C)C)Cc1c2[nH]c2cc(Cl)ccc12` (stereo not given) registered an XC50 of 1380 nM. For the compound `O=S(=O)(Nc1cccc(CCN2CCC(N3CCCCC3)CC2)c1)c1ccc(Oc2ccccc2)nc1`, the XC50 was 928 nM.

The compound `Cc1cc(C(=O)Nc2ccc(C)c(-c3nc(N(C(=O)c4ccc(F)c(C)c4)C4CCNCC4)nc4c3ccc(=O)n4-c3c(F)cccc3F)c2)ccc1F` returned an XC50 of 319 nM. Then `Cc1ccccc1C1CCN(C2CCC(NC(=O)/C=C/c3ccc(C(F)(F)F)cc3)CC2)CC1` (stereo not given), with 1040 nM; and `COc1ccc(C[C@H](N)C(=O)N[C@H]2[C@@H](O)[C@H](n3cnc4c(N(C)C)ncnc43)O[C@@H]2CO)cc1`, with 299 nM. Take `CCCNCc1ccc(-c2ccc(CN(Cc3cnc(C)cn3)C(=O)c3nn(-c4ccccc4)nc3C)cc2)nc1`: the XC50 was 419 nM. To `CCCCCN1CCCN(Cc2cccc(NC(=O)c3ccc(-c4ccccc4)cc3)c2)CC1` belongs 697 nM; to `Cc1cccc2nc(-c3cccc(-c4cccc(C(=O)NCCc5cn(C)cn5)c4)c3)[nH]c12`, 588 nM; to `CN(C(=O)c1nn(-c2ccccn2)c2nccc(-c3cccs3)c12)C1CCCCC1`, 1240 nM. In turn, `Cc1[nH]c(C)c(-c2ccc(-c3cccc(OC(F)(F)F)c3)nc2)c(=O)c1Cl` yielded an XC50 of 74.5 nM.

Turning to `COCc1nc(-c2ccccc2)nc(N2CCN(C(=O)NC(C)C)CC2)c1Cc1ccccc1F`, the XC50 is 1000 nM. Consider `CCN(CCCN1CCCCC1)c1cc(C)nc(Nc2cc(C)ccc2C)n1`, for which the XC50 worked out at 664 nM.

For `O=S(=O)(c1ccccc1C(F)(F)F)C1CC2CCC(C1)N2S(=O)(=O)c1ccc(Cl)c(C(F)(F)F)c1` (stereo not given), the XC50 stood at 706 nM. Then `CN(C)CCOc1ccc(NC(=O)Nc2ccnc3c(Br)cccc23)cc1Cl`, with 842 nM; and `NS(=O)(=O)c1cccc(-c2ccc3nccc(-c4cccc(S(N)(=O)=O)c4)c3c2)c1`, with 1270 nM; and `CN1C(C)(C)CC(NC(=O)c2ccc(-c3nc4cc(Cl)ccc4[nH]3)cc2)CC1(C)C`, with 991 nM. Then `COc1ccc(Nc2nccc(-c3ccc4ccnc(NCCCCN)c4c3)n2)cc1`, with 750 nM; and `CCCCCCN1CCCN(Cc2ccc(C(=O)Nc3ccc(Cl)cc3)cc2)CC1`, with 1210 nM; and `COc1ccc(NS(=O)(=O)c2cc(NC(=O)Cn3ccccc3=O)ccc2N2CCCCC2)cc1`, with 695 nM.

For the compound `Cc1ccc(C2CCN(CCCCNC(=O)c3ccc(-c4ccc(C(F)(F)F)cc4)cc3)CC2)c(O)c1`, the XC50 came to 128 nM. With `CC(=O)Nc1cccc(C(=O)Nc2nc3ccc(-c4cc(=O)[nH]c(Nc5ccccc5Cl)n4)cc3[nH]2)c1`, the XC50 was found to be 689 nM. Then `O=C(/C=C/c1ccc(Cl)c(Cl)c1)N1CCC(CN2CCC(c3c(Br)[nH]c4ccccc34)CC2)CC1`, with 289 nM.

For `Cc1cc(NCCC(=O)NCCOc2ccccc2)nc(NCCc2ccccc2)n1`, the XC50 amounted to 1230 nM. With `CCn1c(Sc2ccc([N+](=O)[O-])c(C#N)c2)nnc1-c1cccc(Cl)c1`, the XC50 is 873 nM.

`CCOC(=O)c1ccc(NC(=O)Nc2cccc(-c3cccc(-c4nc5ccccc5[nH]4)c3)c2)cc1`: the XC50 amounted to 68.7 nM. Turning to `O=C(/C=C/c1ccc(Cl)c(Cl)c1)Nc1cccc(CN2CCC(c3c[nH]c4ccc(O)cc34)CC2)c1`, the XC50 was 945 nM. With `c1ccc(Oc2ccc(Nc3ccnc4cc(-c5ccc(CNCCN6CCOCC6)o5)ccc34)cc2)nc1`, the XC50 worked out at 1440 nM. To `O=C(CCN1CCCCC1)Nc1ccc(Nc2nccc(NCC(O)c3ccccc3)n2)cc1` (stereo not given) belongs 721 nM; to `Cc1ccccc1C1CCN(C2CCC(NC(=O)c3ccc(-c4cccs4)s3)CC2)CC1` (stereo not given), 1030 nM; to `c1ccc(-c2csc(Nc3nc4cc5c(cc4s3)OCO5)n2)nc1`, 579 nM.

`CCOc1ccc(Br)cc1/C=C/C(=O)Nc1ccc2c(c1)C1CCC2N1C` (stereo not given) returned an XC50 of 1050 nM. To `CCCCN1CCN(c2cc(NS(=O)(=O)c3ccc(C(=O)Nc4ccc(C(F)(F)F)cc4)cc3)ccc2OC)CC1` belongs 664 nM. Turning to `O=C(Nc1ccsc1)Nc1cccc(-c2ccc(-c3nc4cc(C(F)(F)F)ccc4[nH]3)cc2)c1`, the XC50 is 351 nM.

As to `O=C(NCc1ccccc1)c1nn(CCCN2CCC(N3CCCC3)CC2)cc1-c1ccc(Cl)c(Cl)c1`, the XC50 came out at 675 nM. Then `O=S(=O)(Nc1ccc2nccc(N3CCNCC3)c2c1)c1ccc2oc3ccccc3c2c1`, with 695 nM; and `CC(C)CCn1c(Sc2ccc(C#N)c([N+](=O)[O-])c2)nnc1-c1cccc(Cl)c1`, with 673 nM; and `O=C(NC1CCCCC1)c1csc(C2CCCN(C(=O)c3ccc(O)c(-c4cccc(C(F)(F)F)c4)c3)C2)n1` (stereo not given), with 1670 nM.

With `COc1cc(-c2cnc(N)c(-c3nc4ccccc4[nH]3)c2)cc(OC)c1OC`, the XC50 turned out to be 191 nM.

For the compound `CCn1c(-c2nonc2N)nc2c(-c3cccc(NC(=O)Nc4ccc(Cl)cc4)c3)ncc(OCCCN)c21`, the XC50 amounted to 828 nM. Then `CC(C)(C)Oc1ccc(C[C@@H]2NC3(C(=O)N(Cc4ccc(Cl)c(Cl)c4)c4ccccc43)C3C(=O)N(c4ccc(Br)cc4)C(=O)C32)cc1` (stereo not given in full), with 1040 nM. In turn, `NC(=O)C1CCN(Cc2ccc(-c3cccc(-c4nc5cc(F)ccc5[nH]4)c3)cc2)CC1` showed an XC50 of 879 nM. To `COc1ccccc1-c1[nH]c2ccccc2c1CN1CCC(c2c(C)cccc2C)CC1` belongs 918 nM; to `Cc1nn(-c2cccc(Cl)c2)c2c1C(C(=O)c1ccc3c(c1)OCO3)CC(=O)N2` (stereo not given), 371 nM.

Regarding `COC(=O)c1noc(C)c1I`, the XC50 came out at 802 nM. Then `Cc1cc(C(=O)CN2C(=O)NC3(CCCc4ccccc43)C2=O)c(C)n1Cc1ccc(F)cc1` (stereo not given), with 970 nM; and `CC(=O)Nc1ccc2[nH]cc(C3CCN(CCC4CCN(C(=O)/C=C/c5ccc(Cl)c(Cl)c5)CC4)CC3)c2n1`, with 518 nM. To `Cc1nnc(NC(=O)c2cn(-c3ccccc3)nc2-c2ccccc2C)o1` belongs 565 nM. Compound `O=S(=O)(Nc1cc2c(cc1O)CCN(C1CCC1)CC2)c1ccc(Oc2ccc(F)cc2)cc1` yielded an XC50 of 775 nM. `COc1ccc2ncc(F)c(CCN3CC[C@H](NCc4cc5c(s4)CCCN5)[C@H](O)C3)c2n1`: the XC50 turned out to be 962 nM. The compound `CC1CN(c2cnn(Cc3ccc(NC(=O)Nc4ccc(F)cc4[N+](=O)[O-])cc3)c(=O)c2Cl)CC(C)N1` (stereo not given) had an XC50 of 808 nM.

For the compound `CNCCCNc1ccnc2cc(Cl)ccc12`, the XC50 stood at 62.4 nM. `CC(C)c1ccc(OCC(O)CN(CCN2CCOCC2)C(=O)Nc2ccc(Br)cc2)cc1` (stereo not given) displayed an XC50 of 717 nM.

Take `COc1ccc2sc(CNCCCNc3cc(=O)c4ccccc4[nH]3)c(Cl)c2c1`: the XC50 is 1070 nM.

In turn, `CC(=O)Nc1ccc(CN2CCC(N(C)c3cc(NC(=O)c4cccs4)ccn3)CC2)cc1` registered an XC50 of 892 nM. Then `O=C(Nc1cccc(CN2CCCN(Cc3ncc[nH]3)CC2)c1)c1ccc(Cl)c(Cl)c1`, with 795 nM. To `FC(F)(F)c1ccc(CNC2CCN(CC3CCCCC3)CC2)cc1` belongs 933 nM; to `Cc1ccc2[nH]c(-c3ccc(C=CC(=O)NC4CCN(Cc5ccccc5)CC4)cc3)nc2c1`, 684 nM; to `Clc1ccc(-c2cc3c(NCc4ccncc4)nccc3s2)cc1`, 852 nM. To `COc1ccc(CNCc2ccc(-c3cccc(-c4nc5cc(C(F)(F)F)ccc5[nH]4)c3)cc2)cc1` belongs 151 nM. Turning to `CCN(CC)CCCNCc1ccc(-c2ccc(C(F)(F)F)cc2)cc1`, the XC50 is 993 nM. Then `CCN(CC)CCCNc1nccc(N(C)c2ccc(NC(=O)Nc3cc(C(F)(F)F)ccc3F)cc2)n1`, with 1050 nM; and `NCCNc1ccnc2cc(Cl)ccc12`, with 125 nM.
